Key:
[1] = tested on: MPTP-treated mice; assay: MPTP mouse model; type: in vivo
Procedure: A) Schematic for experiments in panels B-K. C57BL/6 mice (8 week-old) received 4 i.p. injections of MPTP (20 mg/kg at 2 hr intervals) or vehicle on day 0. […] N=6. […] Quantification of TH protein normalized to control (C,D). N=6. E-G) Example of immunostaining of TH in SNc and striatum (E, scale bars, 500 μm SNc, 1 mm striatum). Quantification of TH-positive neurons in SNc (F) and TH intensity in the striatum (G). N=6. H,I) Dopamine (DA) content in striatum and SnC. N=6. J) Percentage of TH-positive neurons that were positive for TUNEL staining. N=6. K) Behavioral response of mice in rotarod test. Data are duration that mice remained on an accelerated rolling rod normalized to mice at day 0. N=8. Data are examples and mean±SEM. […] Statistical analysis at day 7 and day 14 was Mann-Whitney. In the figure, *p<0.05, **p<0.01.
FIG. 10. […] A) Schematic of experiments in panels B-F. C57BL/6 mice (8 week-old) received 4 i.p. injections of MPTP (20 mg/kg at 2 hr intervals) or vehicle on day 0. […] B,C) Pyruvate and ATP levels in mouse SNc. N=6. D) Mitochondrial DNA (mDNA, 16S and ND1) relative to nuclear DNA (nDNA, intron β-globin) by quantitative PCR of mouse striatum and SNc. N=3. E,F) VDAC (E) and PHB1 (F) protein levels in striatum and SNc assayed by western blot and normalized to control. N=6.
FIG. 12. […] A) Schematic for experiments in panels B-J. C57BL/6 mice (8 week-old) received 4 i.p. injections of MPTP (20 mg/kg at 2 hr intervals) or vehicle on day 0. […] B) Example of TH immunostaining in the SNc on days 7 and 14. Scale bar, 500 μm. C-F) Measurement of DOPAC in mouse striatum (C) and SNc (D) and measurement of HVA in striatum (E) and SNc (F). (N=6). G) Example of TH and TUNEL co-staining in the SNc. TH (green), TUNEL (red), and DAPI (nuclei, blue). Scale bar, 25 μm. Quantitative data are in FIG. 2J. H) Left panels are Nissl staining of neurons in the striatum. Samples were obtained 7 days after MPTP injection. Right panels show the quantification. […] Scale bar, 400 μm. N=3 per group. I,J) Behavioral response of mice in the pole test. (I) Time mice took to turn their heads from upward to downward. (J) Time mice took to climb down the pole. N=8.
MPTP was injected (i.p.) on one day at 20 mg/kg for four times at 2-hour intervals, as previously described (4). […] At the end of the drug or saline treatment, behavioral tests including rotarod test and pole test were carried out before the animals were sacrificed.
The rotarod test was carried out using an automated rotarod (E103, UGO BASILE). At a fixed speed of 15 revolutions per minute (rpm), mice were pre-trained for two consecutive days until they were able to remain on the rod for more than 60 seconds. […] The latency to fall was recorded for a maximum recording time of 600 seconds. The behavior was monitored by a video camera.
This test was carried out by leaving a pole in the cage where the mice were housed. The pole test was performed on the 14th day after MPTP injection as previously described (9). The mouse was placed in a head-upward position on top of a vertical pole (diameter 8 mm, height 55 cm) with a ball (diameter 2.5 cm) on the head of the pole. The pole was wrapped with the nylon gauze to prevent the mouse from slipping down. Each mouse was trained twice before testing. The time that the mouse took to turn his head from upward to downward (Time: Turn) and the time the mouse took to reach the floor with his forepaws (Time: Locomotion Activity) were recorded. Each mouse was tested three times with 5 min. intervals, and the average time was quantified.

[2] = tested on: M17 human neuroblastoma cells; assay: Glycolysis and mitochondrial function in M17 cells
Procedure: Cells were incubated with mild hypoxia for 12 hr before study. Cells were cultured in a sealed chamber (Stemcell Technologies Vancouver, Canada) that was flushed with a humidified gas mixture composed of 5% 02, 5% carbon dioxide (CO2), and 90% nitrogen (N2) for 12 hr. […] Assays of ATP, pyruvate, and citrate synthase activities (CS) were performed according to the manufacturer's instructions.
A Seahorse XV analyzer (XF^e-24, Seahorse Bioscience, Billerica, Mass., USA) was used to measure the oxygen consumption rate (OCR) and the extracellular acidification rate (ECAR) as previously described (18). The M17 cells and iPS cells were seeded in XF^e 24-well plates (Seahorse Bioscience), while the plates used for iPS cells were poly-D-lysine pre-coated. Assay medium was prepared by supplementing Seahorse XF^eBaseMedium minimal DMEM (Seahorse Bioscience) with 2 mM L-glutamine for a Glycolysis Stress Test assay or 2 mM L-glutamine, 1 mM pyruvate and 10 mM glucose for a Mito Stress Test assay (Sigma). pH was adjusted to 7.4 at 37° C. Probes (Seahorse Bioscience) were hydrated in the calibrant (Seahorse Bioscience) in a non-CO2 incubator at 37° C. overnight. Cells were washed twice with assay medium and kept in a non-CO2 incubator at 37° C. for 1 hr before analysis. Glucose, oligomycin and 2-deoxy-glucose (2-DG) were pre-loaded in the probe plate for Glycolysis Stress Test, while oligomycin, FCCP and a mixture of rotenone and antimycin A were used for Mito Stress Test.
Citrate synthase (CS) activity, LDH assay and pyruvate level were detected using commercial kits according to the manufacturer's directions. ATP content in animal tissues and M17 cells were detected with the ATP assay kit following the manufacturer's directions.

[3] = MPTP 20 mg/kg x4, TZ 10 μg/kg daily, day 7
[4] = TZ begun at time of MPTP, day 7

Row | Structure (SMILES) | ATP levels after MPTP [1, 3] | pyruvate levels after MPTP [1, 3] | MPTP-induced defects (TH levels, TH-positive cells, TH immunostaining, dopamine, DOPAC, HVA content, TUNEL-positive TH cells) [1, 4] | motor function (rotarod, pole test) [1, 4] | MPTP-induced abnormalities (TH, dopamine, DOPAC, HVA, TUNEL) ([1]; TZ delayed for 7 days after MPTP, day 14) | motor performance (rotarod, pole test) ([1]; delayed TZ administration, day 14) | glycolysis and mitochondrial function ([2]; TZ 10 μM, 24 hr) | tyrosine hydroxylase levels in MPTP-treated mice ([1]; SNc, western blot, FIG. 17B) | glycolysis ([2]; in vitro, 10 μM, 24 hr (ECAR))
1 | COc1cc2nc(N3CCN(C(=O)C4CCCO4)CC3)nc(N)c2cc1OC (stereo not drawn) [TZ, terazosin] | prevented the fall | prevented the fall | attenuated all these defects | prevented deficits | improved the abnormalities | improved | enhances |  | 
2 | CCOc1ccccc1OCCN[C@H](C)Cc1ccc(OC)c(S(N)(=O)=O)c1 [tamsulosin] |  |  |  |  |  |  |  | did not rescue | does not enhance
